For 2 compounds, inhibition and IC50 results are on record in publication PMC10745768, “Stereoselective Synthesis and Antiproliferative Activity of Steviol-Based Diterpene 1,3-Aminoalcohol Regioisomers” (Molecules, 2023).

In general, inhibition refers to the share of the control response that was lost under treatment. For orientation: IC50 means the concentration that inhibits the measured activity by half.

The test system of assay [1] is HeLa cells. Put plainly: MTT antiproliferative assay, HeLa. The format is cell-based. The settings on record: Homo sapiens, 72 h; for inhibition at 10 µM / inhibition at 30 µM: read-out: Growth inhibition (%) ± SEM; for IC50: read-out: calculated IC50. Summed up:
(§1)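 Human cancer lines and murine NIH/3T3 fibroblasts, the latter for selectivity, were grown in MEM with 10% FBS at 37 °C and treated for 72 h at two concentrations (10, 30 µM). Viability was measured by MTT reduction, with absorbance read at 545 nm.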

The subject of assay [2] is MDA-MB-231 cells. Nature of the assay: MTT antiproliferative assay, MDA-MB-231. The format is cell-based. The settings on record: Homo sapiens; for IC50: MDA-MB-231, 72 h, read-out: calculated IC50; for inhibition at 10 µM: MDA-MB-231, 10 μM; for inhibition at 10 µM / inhibition at 30 µM: 72 h, read-out: Growth inhibition (%) ± SEM; for inhibition at 30 µM: MDA-MB-231, 30 μM. Summed up: as §1

Assay [3] deals with SiHa cells. Put plainly: MTT antiproliferative assay, SiHa. The class given is cell-based. The settings on record: Homo sapiens, 72 h; for inhibition at 10 µM / inhibition at 30 µM: read-out: Growth inhibition (%) ± SEM; for IC50: read-out: calculated IC50. Summed up:
as §1

Assay [4] has as its system MCF-7 cells. Put plainly: MTT antiproliferative assay, MCF-7. The class given is cell-based. The settings on record: Homo sapiens, MCF7; for inhibition at 10 µM: MCF-7, 10 μM; for inhibition at 10 µM / inhibition at 30 µM: 72 h, read-out: Growth inhibition (%) ± SEM; for inhibition at 30 µM: MCF-7, 30 μM; for IC50: MCF-7, 72 h, read-out: calculated IC50. The essentials:
as §1

Assay [5] concerns A2780 cells. Put plainly: MTT antiproliferative assay, A2780. The class given is cell-based. The settings on record: Homo sapiens; for IC50: A2780, 72 h, read-out: calculated IC50; for inhibition at 10 µM: A2780, 10 μM; for inhibition at 10 µM / inhibition at 30 µM: 72 h, read-out: Growth inhibition (%) ± SEM; for inhibition at 30 µM: A2780, 30 μM. Summed up:
as §1

Assay [6] relates to NIH/3T3 fibroblast cells. Nature of the assay: MTT assay on non-malignant fibroblasts (selectivity). The class given is cell-based, murine. The settings on record: Mus musculus, NIH3T3; for inhibition at 10 µM: NIH/3T3, 10 μM; for inhibition at 10 µM / inhibition at 30 µM: 72 h, read-out: Growth inhibition (%) ± SEM; for inhibition at 30 µM: NIH/3T3, 30 μM; for IC50: NIH/3T3, 72 h, read-out: calculated IC50. The essentials:
as §1

Assay [7] has as its system cancer cells and fibroblasts (HeLa, SiHa, MCF-7, MDA-MB-231, A2780, NIH/3T3). Nature of the assay: MTT antiproliferative assay, cancer cells and fibroblasts. The class given is cell-based. The settings on record: Fibroblast; range over all six cell lines; read-out: IC50 values against both the cancer cells and fibroblasts. As to the method: The in vitro anticancer effects of the presented compounds were assessed using the standard MTT [3-(4,5-dimethylthiazol2-yl)-2,5-diphenyltetrazolium bromide] assay on the following human cancer cell lines: cervical (HeLa and SiHa), breast (MCF-7 and MDA-MB-231) and ovarian cancer (A2780). The selectivity of the tested compounds was determined on murine embryonal fibroblast cells (NIH/3T3). The utilised cell lines were purchased from the European Collection of Cell Cultures (Salisbury, UK). The cells were cultivated in Eagle’s minimal essential medium supplemented with 10% fetal bovine serum, 1% non-essential amino acids and 1% antibiotic-antimycotic complex (penicillin, streptomycin, amphotericin B) at 37 °C in a humidified atmosphere containing 5% CO2. All media and supplements were purchased from Lonza Group Ltd. (Basel, Switzerland). The cancer cells were seeded into 96-well plates (5000 cells/well) and incubated overnight, and the test compounds were applied in two different concentrations (10 µM and 30 µM) and incubated for another 72 h under cell-culturing conditions. […] After 72 h, 20 µL of the 5 mg/mL MTT solution was added to each well, and the plates were incubated for 4 h. […] The absorbances were measured at 545 nm using a microplate reader (SPECTROStar Nano, BMG Labtech, Offenburg, Germany). […] The IC50 values were calculated using sigmoid curve fitting. […]
Background: Tetrazolium assays rely on reduction of a dye to a coloured formazan, in cell work by metabolically active cells.

`COC(=O)[C@]1(C)CCC[C@@]2(C)[C@@H]3CC[C@@]4(CNCc5ccc(F)cc5)C[C@]3(CC[C@@H]21)C[C@H]4O` [Compound 23, (4R,4aS,6aR,8R,9S,11aR,11bS)-Methyl 9-(((4-fluorobenzyl)amino)methyl)-8-hydroxy-4,11b-dimethyltetradecahydro-6a,9-methanocyclohepta[a]naphthalene-4-carboxylate]: the inhibition at 10 µM in assay [1] was 70.1 ± 1.97%; in assay [2], 92.99 ± 0.39%; in assay [3] it was 68.1 ± 1.85%; in assay [4], 95.81 ± 0.84%; in assay [5], 80 ± 1.6%; in assay [6] it was 81.8 ± 3.07%. In addition, the inhibition at 30 µM in assay [1] stood at 90.41 ± 0.78%; in assay [2], 91.4 ± 0.39%; in assay [3], 80.5 ± 3.16%; in assay [4], 95.3 ± 1.05%; in assay [5], 95.71 ± 0.58%; in assay [6] it was 93.62 ± 0.77%. The IC50 in assay [1] is 5.07 µM; in assay [2], 3.28 µM; in assay [3] it was 4.41 µM; in assay [4], 1.59 µM; in assay [5] it was 4.39 µM; in assay [6], 5.15 µM. Besides, the IC50 in assay [7] was in the range of 1.59 to 5.15 µM.
Turning to `COC(=O)[C@]1(C)CCC[C@@]2(C)[C@@H]3CC[C@@]4(CNCc5ccc(OC)cc5)C[C@]3(CC[C@@H]21)C[C@H]4O` [Compound 32, (4R,4aS,6aR,8R,9S,11aR,11bS)-Methyl 8-hydroxy-9-(((4-methoxybenzyl)amino)methyl)-4,11b-dimethyltetradecahydro-6a,9-methanocyclohepta[a]naphthalene-4-carboxylate], the inhibition at 10 µM in assay [1] amounted to 97.09 ± 0.79%; in assay [2], 97.12 ± 0.6%; in assay [3], 95.6 ± 2.12%; in assay [4] it was 99.59 ± 0.13%; in assay [5], 97.94 ± 0.6%; in assay [6] it was 96.93 ± 0.92%. The inhibition at 30 µM in assay [1] was 97.18 ± 0.76%; in assay [2], 96.3 ± 1.02%; in assay [3] it was 96.5 ± 1.09%; in assay [4] it was 99.88 ± 0.23%; in assay [5], 98.01 ± 0.6%; in assay [6] it was 96.6 ± 1.05%. Further, the IC50 in assay [1] is 3.09 µM; in assay [2] it was 2.3 µM; in assay [3], 5.77 µM; in assay [4], 1.04 µM; in assay [5], 3.78 µM; in assay [6], 3.71 µM. Moreover, the IC50 in assay [7] lay within 1.04 to 5.77 µM.
